Reference: patent US20100009970A1, “COMPOSITIONS AND METHODS FOR TREATMENT OF VIRAL DISEASES” (Combinatorx (Singapore) Pte. Ltd., priority 2008, published 2010)
Where two headings read alike, the source gives them in different places.

What was measured:
[1] = tested on: Huh7 cells expressing a subgenomic RNA replicon of Con1 (genotype 1b) sequence origin; assay: microbe, parasite or virus in culture; details: Hepatitis C virus
in vitro = details: human
[2] = Huh-7, read-out: IC50 (uM) [SG]
[3] = Huh-7, read-out: Max Effect@CC30 (inhibition)
[4] = Huh-7, read-out: Max effect @CC30 (%)
[5] = GETYPE1B, Huh-7, 72 h, read-out: Max Effect @CC30 (inhibition)
[6] = Huh-7, read-out: Max Effect @CC30 (inhibition)

SMILES | IC50 [1, 2] [µM] | Emax [1, 3] [%] | Emax [1, 4] [%] | IC50 ([1]; Huh-7, read-out: SA IC50 (uM)) [µM] | CC50 (in vitro; CC50 (uM) [SG]) [µM] | Emax [1, 5] [%] | IC50 ([1]; Huh-7, 72 h) [µM] | CC50 (in vitro; CC50 (uM)) [µM] | IC50 ([1]; Huh-7) [µM] | IC90 ([1]; Huh-7) [µM] | Emax [1, 6] [%]
CNC1CCC(c2ccc(Cl)c(Cl)c2)c2ccsc21 (stereo not drawn) [Sertraline A-ring Thiophene] | 8.27 ± 0.46 | 80.8 ± 2.55 | 80.8 ± 2.55 | 8.27 ± 0.46 | 18.8 ± 0.93 | – | – | – | – | – | –
CN[C@H]1CC[C@@H](c2ccc(Cl)c(Cl)c2)c2ccc(S(=O)(=O)NCCO)cc21 [Sertraline Sulfonamide Ethanol, (5S,8S)-5-(3,4-dichlorophenyl)-N-(2-hydroxyethyl)-8-(methylamino)-5,6,7,8-tetrahydronaphthalene-2-sulfonamide] | 8.13 | 80 | – | – | 13.8 | 80 | 8.13 | 13.8 | – | – | –
CSc1ccc(Oc2ccc(S(N)(=O)=O)cc2CO)cc1C [Compound 47, 3-(hydroxymethyl)-4-(3-methyl-4-(methylthio)phenoxy)benzenesulfonamide] | 18.1 | 63.5 | – | – | > 50 | – | – | > 50 | 18.1 | – | –
CSc1ccc(Oc2ccc(N)cc2CN(C)C)cc1C [Compound 53, 3-((dimethylamino)methyl)-4-(3-methyl-4-(methylthio)phenoxy)aniline] | 22.6 | 91.5 | – | – | > 50 | – | – | – | – | 45.7 | –
CSc1ccc(N2CN(C)Cc3cc(S(N)(=O)=O)ccc32)cc1C [Compound 107, 3-methyl-1-(3-methyl-4-(methylthio)phenyl)-1,2,3,4-tetrahydroquinazoline-6-sulfonamide] | 4.84 | – | – | – | > 50 | – | – | – | – | 12.8 | –
CSc1ccc(Oc2ccc(S(N)(=O)=O)cc2N)cc1C [Compound 58, 3-amino-4-(3-methyl-4-(methylthio)phenoxy)benzenesulfonamide] | 15.3 | – | – | – | > 50 | – | – | – | – | – | –
CN[C@H]1CC[C@@H](c2ccc(Cl)c(Cl)c2)c2ccc(CSC)cc21 [Sertraline A-Ring Methylsulfide, (1S,4S)-4-(3,4-dichlorophenyl)-N-methyl-7-(methylthiomethyl)-1,2,3,4-tetrahydronaphthalen-1-amine] | 4.18 | 14.8 | – | – | 6.18 | – | – | – | – | – | –
CSc1ccc(Oc2ccc(S(N)(=O)=O)cc2CNC[C@@H](C)O)cc1C [Compound 68, (R)-3-((2-hydroxypropylamino)methyl)-4-(3-methyl-4-(methylthio)phenoxy)benzenesulfonamide] | 4.34 | – | – | – | > 50 | – | – | – | – | 15.3 | –
CSc1ccc(Oc2ccc(S(N)(=O)=O)cc2CN2CCN(C)CC2)cc1C [Compound 63, 4-(3-methyl-4-(methylthio)phenoxy)-3-((4-methylpiperazine-1-yl)methyl)benzenesulfonamide] | 4.82 | – | – | – | > 50 | – | – | – | – | 10.5 | –
CN(C)[C@H]1CC[C@@H](c2ccc(Cl)c(Cl)c2)c2ccc(NC(=O)c3ccccc3)cc21 [N-((5S,8S)-5-(3,4-dichlorophenyl)-8-(dimethylamino)-5,6,7,8-tetrahydronaphthalen-2-yl)benzamide] | 9.41 | – | – | – | 12.5 | – | – | – | – | – | –
CSc1ccc(Oc2ccc(S(N)(=O)=O)cc2CN2CC[C@H](N(C)C)C2)cc1C [Compound 88, (S)-3-((3-(dimethylamino)pyrrolidin-1-yl)methyl)-4-(3-methyl-4-(methylthio)phenoxy)benzenesulfonamide] | 4.15 | – | – | – | 39.4 | – | – | – | – | 13.2 | –
CSc1ccc(Oc2ccc(S(N)(=O)=O)cc2CN2CCC(N3CCOCC3)CC2)cc1C [Compound 89, 4-(3-methyl-4-(methylthio)phenoxy)-3-((4-morpholinopiperidin-1-yl)methyl)benzenesulfonamide] | 6.62 | – | – | – | > 50 | – | – | – | – | 21.3 | –
CN[C@H]1CC[C@@H](c2ccc(Cl)c(Cl)c2)c2ccc(I)cc21 [Sertraline Iodide, (1S,4S)-4-(3,4-dichlorophenyl)-7-iodo-N-methyl-1,2,3,4-tetrahydronaphthalen-1-amine] | 6.57 | 25 | – | – | 8.92 | 25 | 6.57 | 8.92 | – | – | –
CN[C@H]1CC[C@@H](c2ccc(Cl)c(Cl)c2)c2ccc([N+](=O)[O-])cc21 [Nitro Sertraline, (1S,4S)-4-(3,4-dichlorophenyl)-N-methyl-7-nitro-1,2,3,4-tetrahydronaphthalen-1-amine] | 6.46 | 27 | – | – | 8.03 | 27 | 6.46 | 8.03 | – | – | –
CN[C@H]1CC[C@@H](c2ccc(Cl)c(Cl)c2)c2ccc(NS(=O)(=O)c3cn(C)cn3)cc21 [N-((5S,8S)-5-(3,4-dichlorophenyl)-8-(methylamino)-5,6,7,8-tetrahydronaphthalen-2-yl)-1-methyl-1H-imidazole-4-sulfonamide] | 7.76 | 20.2 | – | – | 13.6 | – | – | – | – | – | –
CSc1ccc(Oc2ccc(S(N)(=O)=O)cc2CN2CCN(CCO)CC2)cc1C [Compound 95, 3-((4-(2-hydroxyethyl)piperazin-1-yl)methyl)-4-(3-methyl-4-(methylthio)phenoxy)benzenesulfonamide] | 6.5 | – | – | – | > 50 | – | – | – | – | 17 | –
CNCc1cc(Br)ccc1Oc1ccc(SC)c(C)c1 [Compound 31, (5-bromo-2-(3-methyl-4-(methylthio)phenoxy)phenyl)-N-methylmethanamine] | 7.51 | 18 | – | – | 13.5 | – | – | – | – | – | –
CSc1ccc(Oc2ccc(S(N)(=O)=O)cc2CN(C)CCCN(C)C)cc1C [Compound 94, 3-(((3-(dimethylamino)propyl)(methyl)amino)methyl)-4-(3-methyl-4-(methylthio)phenoxy)benzenesulfonamide] | 3.26 | – | – | – | 15 | – | – | – | – | 7.38 | –
CN(C1CC1)[C@H]1CC[C@@H](c2ccc(Cl)c(Cl)c2)c2ccccc21 [N-Cyclopropyl Sertraline, (1S,4S)—N-cyclopropyl-4-(3,4-dichlorophenyl)-N-methyl-1,2,3,4-tetrahydronaphthalen-1-amine] | 14.5 | 99 | – | – | > 50 | – | – | – | – | 34.2 | –
CSc1ccc(Oc2ccc(S(N)(=O)=O)cc2CN2CCOCC2)cc1C [Compound 82, 4-(3-methyl-4-(methylthio)phenoxy)-3-(morpholinomethyl)benzenesulfonamide] | 20.8 | – | – | – | > 50 | – | – | – | – | – | –
CSc1cc(S(N)(=O)=O)c(Oc2cc(Br)ccc2CN(C)C)cc1C [Compound 72, 2-(5-bromo-2-((dimethylamino)methyl)phenoxy)-4-methyl-5-(methylthio)benzenesulfonamide] | 16.3 | – | – | – | 45 | – | – | – | – | – | –
CN[C@H]1CC[C@@H](c2ccc(Cl)c(Cl)c2)c2ccc(N)cc21 [Sertraline Aniline, (1S,4S)-4-(3,4-dichlorophenyl)-N1-methyl-1,2,3,4-tetrahydronaphthalene-1,7-diamine] | 6 | 50 | – | – | 8.72 | 50 | 6 | 8.72 | – | – | –
CCCCC(=O)Nc1ccc2c(c1)[C@@H](NC)CC[C@H]2c1ccc(Cl)c(Cl)c1 [Sertraline A-Ring Reverse Pentanamide, N-((5S,8S)-5-(3,4-dichlorophenyl)-8-(methylamino)-5,6,7,8-tetrahydronaphthalen-2-yl)pentanamide] | 3.67 | 33.1 | – | – | 4.32 | – | – | 4.32 | 3.68 | 5.03 | 33.1
CN[C@H]1CC[C@@H](c2ccc(Cl)c(Cl)c2)c2ccc(NS(=O)(=O)c3ccccc3)cc21 [N-((5S,8S)-5-(3,4-dichlorophenyl)-8-(methylamino)-5,6,7,8-tetrahydronaphthalen-2-yl)benzenesulfonamide] | 3.48 | – | – | – | 3.91 | – | – | 3.91 | 3.48 | 3.83 | –
CSc1ccc(Oc2ccc(S(N)(=O)=O)cc2CNCCCN(C)C)cc1C [Compound 79, 3-((3-(dimethylamino)propylamino)methyl)-4-(3-methyl-4-(methylthio)phenoxy)benzenesulfonamide] | 3.44 | – | – | – | 17.8 | – | – | – | – | 9.66 | –
CN[C@H]1CC[C@@H](c2ccc(Cl)c(Cl)c2)c2ccc(N(C)C(C)=O)cc21 [N-((5S,8S)-5-(3,4-dichlorophenyl)-8-(methylamino)-5,6,7,8-tetrahydronaphthalen-2-yl)-N-methylacetamide] | 3.79 | – | – | – | 14.6 | – | – | – | – | 10.7 | –
CSc1ccc(Nc2ccc(S(N)(=O)=O)cc2CN(C)C)cc1C [Compound 108, 3-((dimethylamino)methyl)-4-(3-methyl-4-(methylthio)phenylamino)benzensulfonamide] | 2.64 | – | – | – | 44.9 | – | – | – | – | 17 | –
CN(C)Cc1ccccc1Oc1ccc(Br)cc1 [Compound 55, (2-(4-bromophenoxy)phenyl)-N,N-dimethylmethanamine] | 29.9 | 77.2 | – | – | > 50 | – | – | – | – | – | –
CNCc1cc([N+](=O)[O-])ccc1Oc1ccc(SC)c(C)c1 [Compound 50, N-methyl-1-(2-(3-methyl-4-(methylthio)phenoxy)-5-nitrophenyl)methanamine] | 6.04 | 90 | – | – | 26.1 | – | – | – | – | 11.4 | –
CN[C@H]1CC[C@@H](c2ccc(Cl)c(Cl)c2)c2ccc(NC(C)=O)cc21 [Sertraline A-Ring Reverse Carboxamide, N-((5S,8S)-5-(3,4-dichlorophenyl)-8-(methylamino)-5,6,7,8-tetrahydronaphthalen-2-yl)acetamide] | 0.91 ± 0.08 | 83 ± 6.55 | 83 ± 6.55 | 0.91 ± 0.08 | 12 ± 1.77 | – | – | 10.7 | 0.85 | 7.26 | 87.7
